Reference: patent US12264163B2, “Compounds and methods for treating fibrotic pathologies” (Mayo Foundation for Medical Education and Research, priority 2019, dated 2025)
Counter-ions that a name gives are not always drawn.

Assays:
CTGF, COL1A1, ACTA2, FN1 = assay: Profibrotic / matrix remodeling gene expression by qPCR in fibroblasts; assay type: cell-based, human; details: for profibrotic gene expression / effect of D1 antagonist on DHX's inhibition of YAP/TAZ target genes: IMR-90 lung fibroblasts; for profibrotic gene expression: 24 hours
Experimental: Genes which encode Connective tissue growth factor (CTGF), Collagen I (COL1A1), αSMA (ACTA2), and Fibronectin (FN1) are reduced by 24 hour treatment with DHX (10 μM), +/−SCH 39166 (3 μM). N=3 (****p<0.0001, ***p<0.001, *p<0.05 vs. 0.1% DMSO vehicle control)
IPF patient-derived fibroblasts cultured in media containing 0.1% FBS were stimulated for 24 hours with 2 ng/mL TGFβ and 10 μM DHX prior to RNA isolation. Genes which encode for ECM crosslinking: transglutaminase 2 (TGM2), lysyl oxidase and lysyl oxidase-like enzymes (LOX and LOXL1-4), ECM degradation: uPA (PLAU), tPa (PLAT), cathepsin K (CTSK), and matrix metalloprotease-14 (MMP14) and ECM protease inhibitors: metalloprotease inhibitor 3 (TIMP3), and plasminogen activator inhibitor 1 (SERPINE1) were measured. N=3. (****p<0.0001, ***p<0.001, **p<0.01, *p<0.05 vs. 0.1% DMSO vehicle control non-TGFβ treated), (++++p<0.0001, ++p<0.01, +p<0.05 vs. 0.10% DMSO vehicle control TGFβ treated).
For all other in vitro experiments, cells were treated as indicated prior to RNA isolation using RNeasy Plus Mini Kit (Qiagen) according to manufacturer's instructions. Isolated RNA (250 ng) was then used to synthesize cDNA using SuperScript VILO (Invitrogen). Quantitative PCR was performed using FastStart Essential DNA Green Master (Roche) and analyzed using a LightCycler 96 (Roche). Data are expressed as a fold change by ΔΔCt relative to GAPDH. For in vivo experiments, tissue was immediately frozen, and stored at −80° C. RNA isolation, cDNA synthesis, and qPCR analysis were performed as above.

D1 receptor = details: cited from earlier work
YAP/TAZ [1] = assay: YAP/TAZ nuclear localization in IPF patient-derived lung fibroblasts treated with dopaminergic agonists; assay type: cell-based, human; details: for Nuclear localization (% of total cells): 10 μM, 2 hours
Experimental: IPF patient-derived lung fibroblasts cells treated 2 hours prior to fixation with diverse dopaminergic agonists (10 μM). N=4 different patient samples. % nuclear localization of YAP/TAZ was determined using automated imaging software. Scale bar represents 100 μm.
(§1) Media was then exchanged for the indicated conditions for each experiment. […] Cells or tissue sections were incubated overnight with mouse monoclonal antibody against αSMA (Sigma-Aldrich F3777), and/or a rabbit monoclonal antibody against YAP/TAZ (Cell Signaling D24E4) diluted 1:200 in PBS with 1% BSA. Cells were then washed and exposed to flourescence-conjugated secondary antibodies (Invitrogen) diluted 1:1000 and DAPI (Thermo Fisher Scientific). Images were taken with a Cytation5 (BioTek) microscope. For scoring αSMA positive cells (FIG. 12), an observer blinded to the treatment conditions counted αSMA-positive cells using a visual threshold for bright fibrous staining; a minimum of 200 cells was counted for each condition. YAP/TAZ localization was quantified (FIGS. 6-10, 24-26, and 29-30) using Gen5 (Biotek) software. Images were taken at 4× magnification of both DAPI and YAP/TAZ staining. […] Quantification of double positive (YAP/TAZ and αSMA) cells from lung tissue sections (FIG. 17-21) was performed similarly; however separate thresholds were established for both YAP/TAZ and αSMA. A minimum of 4000 cells was quantified for each mouse.

αSMA [2] = assay: αSMA intensity (fibroblast activation) in IPF patient-derived lung fibroblasts + TGFβ, dopaminergic agonist library; assay type: cell-based, human; details: 1 μM + TGFβ, 72 hours
Experimental: as §1

YAP/TAZ [3] = assay: YAP/TAZ nuclear localization in adult lung fibroblasts, dose response (Cytation 5); assay type: cell-based; details: Homo sapiens, Fibroblast, 2 h, adult lung fibroblasts sparsely plated, treated 2 hours; read-out: IC50, inhibition of YAP/TAZ nuclear localization
Experimental: Adult lung fibroblasts (N=2) sparsely plated into 96-well plates. Treated for 2 hours with compounds prior to fixing and immunostaining for YAP/TAZ.
(§2) Immunofluorescence Microscopy: Cells were plated into 96 well plates (Corning 3603) in their specific growth media and allowed to attach (8 hours). Media was then exchanged for the indicated conditions for each experiment. Cells were fixed in 3.7% formalin (Sigma-Aldrich), permeabilized in 0.25% Triton X-100 (Sigma-Aldrich) and then blocked with 1% BSA for 1 h. Cells or tissue sections were incubated overnight with mouse monoclonal antibody against αSMA (Sigma-Aldrich F3777), and/or a rabbit monoclonal antibody against YAP/TAZ (Cell Signaling D24E4) diluted 1:200 in PBS with 1% BSA. Cells were then washed and exposed to flourescence-conjugated secondary antibodies (Invitrogen) diluted 1:1000 and DAPI (Thermo Fisher Scientific). Images were taken with a Cytation5 (BioTek) microscope. For scoring αSMA positive cells (FIG. 12), an observer blinded to the treatment conditions counted αSMA-positive cells using a visual threshold for bright fibrous staining; a minimum of 200 cells was counted for each condition. YAP/TAZ localization was quantified (FIGS. 6-10, 24-26, and 29-30) using Gen5 (Biotek) software. Images were taken at 4× magnification of both DAPI and YAP/TAZ staining. […] Quantification of double positive (YAP/TAZ and αSMA) cells from lung tissue sections (FIG. 17-21) was performed similarly; however separate thresholds were established for both YAP/TAZ and αSMA. A minimum of 4000 cells was quantified for each mouse.

cAMP = cAMP assay (cAMP-Glo) in fibroblasts; assay type: cell-based, human; details: IMR-90 lung fibroblasts
Experimental: FIG. 9 contains a bar graph showing cAMP measured in IPF patient-derived fibroblasts treated for 20 minutes with DHX (10 μM)+/−SCH 39166 (3 μM). N=3 (**p<0.01 vs. 0.1% DMSO vehicle control).
N=3, IMR-90 lung fibroblasts.
cAMPAssay: IPF patient derived fibroblasts were plated in EMEM containing 10% FBS overnight. […] 20 minutes prior to cell lysis media was removed and cells were treated with “induction buffer” containing nonselective phosphodiesterase inhibitors and the indicated concentration of compound(s). Luminescence was measured on a Flexstation 3 (Molecular Devices) plate reader.

YAP/TAZ [4] = assay: YAP/TAZ nuclear localization in IMR-90 and other fibroblasts / mesenchymal cells (immunofluorescence); assay type: cell-based, human; details: IMR-90 lung fibroblasts
Experimental: Selective agonists of dopamine receptor D1 with varying efficacy inhibit YAP/TAZ nuclear localization; this effect can be overcome by treatment with a DRD1 receptor antagonist (SCH 39166, 3 μM), (Dihydrexidine, 10 μM). IMR-90 cells treated 2 hours prior to fixation. N=4 (****p<0.0001 vs. 0.10% DMSO vehicle control). Scale bar represents 100 μm.
In each case DHX treatment (10 μM) can reverse this effect on YAP/TAZ. IMR-90 cells plated densely onto plastic cell culture plates for 24 hours in media containing 0.1% FBS, treated for 2 hours prior to fixation. N=4 (****p<0.0001 vs. 0.1% DMSO vehicle control), (++++p<0.0001 vs. the respective stimulated agonist ET-1, LPA, or 5-HT). Scale bar represents 100 μm.
Mesenchymal cells derived from lung (IMR-90 and IPF-FBs) hepatic stellate cells (HSC), human adult cardiac fibroblasts, (HACF) and human dermal fibroblasts (HDF) were plated densely (Confluent) or sparsely (Control and all remaining conditions) onto plastic cell culture plates for 24 hours in media containing 0.10% FBS, treated for 2 hours with Rho kinase inhibitor Y27632, adenylate cyclase activator forskolin and DHX. N=4, Cells that were positive for nuclear YAP/TAZ were quantified by automated image analysis.
as §2

αSMA [5] = assay: TGFβ-induced αSMA+ stress fiber formation in fibroblasts; assay type: cell-based, human; details: IPF-patient derived fibroblasts, TGFβ 48 hours, then dopamine 1 μM + TGFβ 24 hours
Experimental: Media was then exchanged for the indicated conditions for each experiment. Cells were fixed in 3.7% formalin (Sigma-Aldrich), permeabilized in 0.25% Triton X-100 (Sigma-Aldrich) and then blocked with 1% BSA for 1 h. Cells or tissue sections were incubated overnight with mouse monoclonal antibody against αSMA (Sigma-Aldrich F3777), and/or a rabbit monoclonal antibody against YAP/TAZ (Cell Signaling D24E4) diluted 1:200 in PBS with 1% BSA. Cells were then washed and exposed to flourescence-conjugated secondary antibodies (Invitrogen) diluted 1:1000 and DAPI (Thermo Fisher Scientific). Images were taken with a Cytation5 (BioTek) microscope. For scoring αSMA positive cells (FIG. 12), an observer blinded to the treatment conditions counted αSMA-positive cells using a visual threshold for bright fibrous staining; a minimum of 200 cells was counted for each condition. YAP/TAZ localization was quantified (FIGS. 6-10, 24-26, and 29-30) using Gen5 (Biotek) software. Images were taken at 4× magnification of both DAPI and YAP/TAZ staining. […] Quantification of double positive (YAP/TAZ and αSMA) cells from lung tissue sections (FIG. 17-21) was performed similarly; however separate thresholds were established for both YAP/TAZ and αSMA. A minimum of 4000 cells was quantified for each mouse.

[6] = system: IPF patient derived fibroblasts; assay: Traction force microscopy of IPF patient-derived fibroblasts; assay type: cell-based, human; details: IPF fibroblasts on 6.4 kPa matrices
Experimental: Traction Force Microscopy: Traction analysis was conducted as previously described. […] IPF patient derived fibroblasts were plated on the gels overnight and treated as indicated before traction force measurements. Images of gel surface-conjugated fluorescent beads were acquired for each cell before and after trypsinization using a Nikon ECLIPSE Ti microscope at ×10 magnification. Traction forces were estimated by measuring bead displacement fields and computing corresponding traction fields using TractionsForAll (freely distributed program that calculates 2-D tractions exerted by an adherent cell on its substrate).

| SMILES | Nuclear localization (% of total cells) (YAP/TAZ [1]; IPF-1 patient fibroblasts) | Nuclear localization (% of total cells) (YAP/TAZ [1]; IPF-2 patient fibroblasts) | Nuclear localization (% of total cells) (YAP/TAZ [1]; IPF-3 patient fibroblasts) | Nuclear localization (% of total cells) (YAP/TAZ [1]; IPF-4 patient fibroblasts) | profibrotic gene expression (CTGF, COL1A1, ACTA2, FN1) | IC50 (YAP/TAZ [3]) [nM] | effect of D1 antagonist on DHX's inhibition of YAP/TAZ target genes (CTGF, COL1A1, ACTA2, FN1) | effect of D1 antagonist on DHX's elevation of cAMP (cAMP) | effect of D1 antagonist on DHX's inhibition of YAP/TAZ nuclear localization (YAP/TAZ [4]) | further results |
| --- | --- | --- | --- | --- | --- | --- | --- | --- | --- | --- |
| Cl.NC[C@@H]1O[C@H](c2ccccc2)Cc2c1ccc(O)c2O [A 68930•HCl, A 68930] | 33.13 % of total cells | 30.59 % of total cells | 26.82 % of total cells | 10.26 % of total cells | – | – | – | – | – | profibrotic gene expression in human dermal fibroblasts (CTGF, COL1A1, ACTA2, FN1; human dermal fibroblasts, 24 hours +/− 2 ng/mL TGFβ): blocks profibrotic gene expression; efficacy at elevating cAMP (D1 receptor) (D1 receptor): lacks full efficacy to elevate cAMP; αSMA intensity (% of DMSO control) (αSMA [2]; IPF-1 patient fibroblasts): 12.4 % of DMSO control; αSMA intensity (% of DMSO control) (αSMA [2]; IPF-2 patient fibroblasts): 8.111 % of DMSO control; αSMA intensity (% of DMSO control) (αSMA [2]; IPF-3 patient fibroblasts): 3.245 % of DMSO control; αSMA intensity (% of DMSO control) (αSMA [2]; IPF-4 patient fibroblasts): 7.35 % of DMSO control |
| NCC1OC(C2CCCOC2)Cc2c1ccc(O)c2O (stereo not drawn) [CTC-1] | – | – | – | – | inhibition of profibrotic gene expression | 285 | – | – | – | – |
| CN1CCc2ccccc2Cc2[nH]c3ccccc3c2CC1 [LE-300] | – | – | – | – | – | – | block DHX's inhibition of YAP/TAZ target genes | block DHX's elevation of cAMP | block DHX's inhibition of YAP/TAZ nuclear localization | – |
| CC(C)(CO)C1Cc2c(ccc(O)c2O)C(CN)O1 (stereo not drawn) [CTC-2] | – | – | – | – | inhibition of profibrotic gene expression | 490 | – | – | – | – |
| NCCc1ccc(O)c(O)c1 [Dopamine•HCl, Dopamine] | 39.85 % of total cells | 59.29 % of total cells | 49.67 % of total cells | 49.51 % of total cells | – | – | – | – | – | αSMA+ stress fiber formation (αSMA [5]): reverses αSMA+ stress fiber formation; YAP/TAZ nuclear localization (YAP/TAZ [1]; low density IPF-patient derived fibroblasts on tissue culture plastic): inhibits YAP/TAZ nuclear localization; contractile forces (traction force microscopy) [6]: attenuates IPF fibroblast contractility |
| CN1CCc2cc(Cl)c(O)cc2[C@H]2c3ccccc3CC[C@@H]21 [SCH-39166] | – | – | – | – | – | – | block DHX's inhibition of YAP/TAZ target genes | block DHX's elevation of cAMP | block DHX's inhibition of YAP/TAZ nuclear localization | – |
